Earlier results in PubChem BioAssay AID1259409 (Chemical Carcinogenesis Research Information System (CCRIS), 2018).

System: rodent chemically induced tumor inhibition, incidence and multiplicity
Experiment: CCRIS tumor inhibitor studies
Conditions: Dose [Inhibitor]: 0, Species: RAT

Compound: NCCS
- tumour outcome (control, treated, inhibition, significance) (Carcinogen: 7,12-DIMETHYLBENZ[A]ANTHRACENE, 57-97-6, 0.015 MOL/KG DIET BEGINNING 2 WK PRIOR TO CARCINOGEN AND CONTINUED FOR STUDY DURATION (STUDY DURATION: 25 WK), Route [Inhibitor]: ORAL, Strain/Sex: CD-1/FEMALE, Target Tissue: Type of Lesion: MAMMARY GLAND: ADENOCARCINOMA, Dose [Carcinogen]: 10 MG ONCE, Promoter: NONE USED): 18/25 (72%), 17/25 (68%), 5%, not significant
- tumour outcome (control, treated, inhibition, significance) (Carcinogen: 7,12-DIMETHYLBENZ[A]ANTHRACENE, 57-97-6, 0.03 MOL/KG DIET BEGINNING 2 WK PRIOR TO CARCINOGEN AND CONTINUED FOR STUDY DURATION (STUDY DURATION: 25 WK), Route [Inhibitor]: ORAL, Strain/Sex: CD-1/FEMALE, Target Tissue: Type of Lesion: MAMMARY GLAND: ADENOCARCINOMA, Dose [Carcinogen]: 10 MG ONCE, Promoter: NONE USED): 18/25 (72%), 12/25 (48%), 33%, not significant
- tumour outcome (control, treated, inhibition, significance) (Carcinogen: 7,12-DIMETHYLBENZ[A]ANTHRACENE, 57-97-6, 0.06 MOL/KG DIET BEGINNING 2 WK PRIOR TO CARCINOGEN AND CONTINUED FOR STUDY DURATION (STUDY DURATION: 25 WK), Route [Inhibitor]: ORAL, Strain/Sex: CD-1/FEMALE, Target Tissue: Type of Lesion: MAMMARY GLAND: ADENOCARCINOMA, Dose [Carcinogen]: 10 MG ONCE, Promoter: NONE USED): 18/25 (72%), 13/25 (52%), 28%, not significant
- tumour outcome (control, treated, inhibition, significance) (Carcinogen: AZOXYMETHANE, 25843-45-2, 25 MG/KG IN 0.9% SODIUM CHLORIDE 1/2 D FOR 40 WK ADMINISTERED CONCURRENTLY WITH CARCINOGEN (STUDY DURATION: 40 WK), Route [Inhibitor]: SUBCUTANEOUS, Strain/Sex: WISTAR, Target Tissue: Type of Lesion: COLON: TUMOR, Dose [Carcinogen]: 7.4 MG/KG IN 0.9% SODIUM CHLORIDE SOLUTION 1/WK FOR 10 WK, Promoter: NONE USED): 17/18 (94%), 7/17 (41%), 56%, p<0.01
- tumour outcome (control, treated, inhibition, significance) (Carcinogen: N-METHYL-N'-NITRO-N-NITROSOGUANIDINE, 70-25-7, 5 MG/KG 1/2 D ADMINISTERED SIMULTANEOUSLY WITH 30 MG/KG SULPIRIDE BEGINNING 1 WK POST CARCINOGEN TREATMENT AND CONTIN, Route [Inhibitor]: SUBCUTANEOUS, Strain/Sex: WISTAR/MALE, Target Tissue: Type of Lesion: STOMACH: ADENOCARCINOMA, Dose [Carcinogen]: 50 UG/ML IN DRINKING WATER FOR 25 WK, Promoter: NONE USED): 13/18 (72%), 5/20 (25%), 65%, not calculated
- tumour outcome (control, treated, inhibition, significance) (Carcinogen: N-METHYL-N'-NITRO-N-NITROSOGUANIDINE, 70-25-7, 5 MG/KG 1/2 D BEGINNING 1 WK POST CARCINOGEN TREATMENT AND CONTINUING FOR DURATION OF STUDY (STUDY DURATION: 52 WK), Route [Inhibitor]: SUBCUTANEOUS, Strain/Sex: WISTAR/MALE, Target Tissue: Type of Lesion: STOMACH: ADENOCARCINOMA, Dose [Carcinogen]: 50 UG/ML IN DRINKING WATER FOR 25 WK, Promoter: NONE USED): 13/18 (72%), 13/20 (65%), 10%, not significant
- tumour outcome (control, treated, inhibition, significance) (Carcinogen: N-METHYL-N'-NITRO-N-NITROSOGUANIDINE, 70-25-7, 5 MG/KG IN 1 ML/KG OLIVE OIL 1/2 D FOR STUDY DURATION BEGINNING POST CARCINOGEN TREATMENT (STUDY DURATION: 52 WK), Route [Inhibitor]: SUBCUTANEOUS, Strain/Sex: WISTAR/MALE, Target Tissue: Type of Lesion: GLANDULAR STOMACH: ADENOCARCINOMA, Dose [Carcinogen]: 50 UG/ML DRINKING WATER FOR 25 WK): 13/18 (72%), 13/20 (65%), 10%, not significant
- tumour outcome (control, treated, inhibition, significance) (Carcinogen: N-METHYL-N'-NITRO-N-NITROSOGUANIDINE, 70-25-7, 25 MG/KG 1/2 D ADMINISTERED SIMULTANEOUSLY WITH 30 MG/KG SULPIRIDE BEGINNING 1 WK POST CARCINOGEN TREATMENT AND CONTI, Route [Inhibitor]: SUBCUTANEOUS, Strain/Sex: WISTAR/MALE, Target Tissue: Type of Lesion: STOMACH: ADENOCARCINOMA, Dose [Carcinogen]: 50 UG/ML IN DRINKING WATER FOR 25 WK, Promoter: NONE USED): 13/18 (72%), 6/20 (30%), 58%, not calculated
- tumour outcome (control, treated, inhibition, significance) (Carcinogen: N-METHYL-N'-NITRO-N-NITROSOGUANIDINE, 70-25-7, 25 MG/KG 1/2 D BEGINNING 1 WK POST CARCINOGEN TREATMENT AND CONTINUING FOR DURATION OF STUDY (STUDY DURATION: 52 WK), Route [Inhibitor]: SUBCUTANEOUS, Strain/Sex: WISTAR/MALE, Target Tissue: Type of Lesion: STOMACH: ADENOCARCINOMA, Dose [Carcinogen]: 50 UG/ML IN DRINKING WATER FOR 25 WK, Promoter: NONE USED): 13/18 (72%), 6/20 (30%), 58%, p<0.05
- tumour outcome (control, treated, inhibition, significance) (Carcinogen: N-METHYL-N'-NITRO-N-NITROSOGUANIDINE, 70-25-7, 25 MG/KG IN 0.9% SALINE 1/2 D BEGINNING 1 WK POST LAST CARCINOGEN DOSE AND CONTINUING FOR DURATION OF STUDY (STUDY DU, Route [Inhibitor]: SUBCUTANEOUS, Strain/Sex: WISTAR/MALE, Target Tissue: Type of Lesion: STOMACH: ADENOCARCINOMA, Dose [Carcinogen]: 100 UG/ML IN DRINKING WATER FOR 25 WK, Promoter: NONE USED): 16/20 (80%), 10/22 (45%), 44%, p<0.05
